Test results reported in ChEMBL document CHEMBL5113380, “Functionalized quinoxalinones as privileged structures with broad-ranging pharmacological activities” (Eur J Med Chem, 2022).
In brackets after ≈: the same amount, converted by molar mass.

Experiments:
[1] = tested on: Candida albicans; experiment: Antifungal activity against Candida albicans assessed as diameter zone of inhibition; type: functional
[2] = Vasorelaxant activity in aortic smooth muscle (unknown origin); type: functional, Aorta smooth muscle tissue; set-up: scale not given: the % may be the effect or the level left
[3] = tested on: Candida tropicalis; experiment: Antifungal activity against Candida tropicalis; type: functional
[4] = tested on: Nakaseomyces glabratus; experiment: Antifungal activity against Candida glabrata; type: functional
[5] = tested on: Escherichia coli; experiment: Antibacterial activity against Escherichia coli; type: functional
[6] = tested on: Mycobacterium tuberculosis; experiment: Antimycobacterial activity against Mycobacterium tuberculosis at […]; type: functional; conditions: dose 12.5 µg/ml
[7] = tested on: Pichia kudriavzevii; experiment: Antifungal activity against Candida krusei; type: functional
[8] = tested on: Candida; experiment: Antifungal activity against Candida species isolate 3; type: functional
[9] = tested on: Candida; experiment: Antifungal activity against Candida species isolate 1; type: functional
[10] = tested on: Candida; experiment: Antifungal activity against Candida species isolate 2; type: functional
[11] = tested on: Candida parapsilosis; experiment: Antifungal activity against Candida parapsilosis; type: functional; conditions: Lodderomyces parapsilosis
[12] = tested on: Candida albicans; experiment: Antifungal activity against Candida albicans; type: functional
[13] = Effect on loperamide-induced constipation in CD-1 mouse assessed as normalization of fecal output and water content at 0.5 mg/kg, po; type: functional
[14] = Drug metabolism in human liver microsomes; type: ADME, Microsome; conditions: read-out: Drug metabolism
[15] = tested on: Human immunodeficiency virus 1; experiment: Antiviral activity against HIV1; type: functional, organism-based
[16] = Antioxidant activity assessed as ABTS radical scavenging activity; type: functional
[17] = Antioxidant activity assessed as H2O2 radical scavenging activity; type: functional; conditions: read-out: IC50
[18] = Antioxidant activity assessed as DPPH radical scavenging activity; type: functional; conditions: read-out: IC50
[19] = target: T1, Alpha amylase (Homo sapiens, UniProt P0DUB6); experiment: Inhibition of alpha-amylase (unknown origin)
T1 sequence (P0DUB6 whole entry): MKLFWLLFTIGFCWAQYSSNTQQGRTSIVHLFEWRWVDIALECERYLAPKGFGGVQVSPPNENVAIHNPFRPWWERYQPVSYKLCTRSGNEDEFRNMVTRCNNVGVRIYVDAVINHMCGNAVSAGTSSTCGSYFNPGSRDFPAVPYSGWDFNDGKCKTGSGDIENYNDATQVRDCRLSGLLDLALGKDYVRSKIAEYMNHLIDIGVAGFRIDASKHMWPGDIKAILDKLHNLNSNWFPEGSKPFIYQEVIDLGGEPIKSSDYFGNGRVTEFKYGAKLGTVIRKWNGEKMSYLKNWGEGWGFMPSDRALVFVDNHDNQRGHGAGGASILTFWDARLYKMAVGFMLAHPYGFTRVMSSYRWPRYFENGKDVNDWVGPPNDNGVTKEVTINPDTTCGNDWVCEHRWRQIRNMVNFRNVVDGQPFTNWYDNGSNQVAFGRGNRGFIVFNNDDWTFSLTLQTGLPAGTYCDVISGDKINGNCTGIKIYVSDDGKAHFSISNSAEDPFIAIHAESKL

[20] = Antioxidant activity assessed as Ferric ion reducing activity by FRAP assay; type: functional
[21] = Inhibition of DC-SIGN (unknown origin)
[22] = Partial agonist activity at GABAA/benzodiazepine receptor complex (unknown origin) measured by [35S]TBPS based functional assay; set-up: species or system Homo sapiens
[23] = Displacement of [3H]flunitrazepam from GABAA/benzodiazepine receptor complex (unknown origin); set-up: species or system Homo sapiens
[24] = target: Amine oxidase [flavin-containing] B (Homo sapiens, UniProt P27338); experiment: Inhibition of MAO-B (unknown origin)
Chain of Amine oxidase [flavin-containing] B (P27338 whole entry): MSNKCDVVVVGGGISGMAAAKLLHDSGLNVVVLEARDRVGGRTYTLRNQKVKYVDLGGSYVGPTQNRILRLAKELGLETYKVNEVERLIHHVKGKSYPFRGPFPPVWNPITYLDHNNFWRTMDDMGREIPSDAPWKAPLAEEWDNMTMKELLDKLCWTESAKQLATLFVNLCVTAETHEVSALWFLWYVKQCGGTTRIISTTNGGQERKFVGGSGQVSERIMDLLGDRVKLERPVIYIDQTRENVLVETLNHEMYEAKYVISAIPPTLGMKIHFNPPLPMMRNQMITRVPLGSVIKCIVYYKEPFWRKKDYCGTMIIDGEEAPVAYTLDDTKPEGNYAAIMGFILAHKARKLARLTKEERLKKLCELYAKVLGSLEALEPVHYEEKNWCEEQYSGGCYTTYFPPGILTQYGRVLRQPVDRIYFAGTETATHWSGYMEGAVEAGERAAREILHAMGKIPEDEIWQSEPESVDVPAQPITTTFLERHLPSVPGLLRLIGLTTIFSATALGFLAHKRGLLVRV

[25] = target: Amine oxidase [flavin-containing] A (Homo sapiens, UniProt P21397); experiment: Inhibition of MAO-A (unknown origin)
Chain of Amine oxidase [flavin-containing] A (P21397 whole entry): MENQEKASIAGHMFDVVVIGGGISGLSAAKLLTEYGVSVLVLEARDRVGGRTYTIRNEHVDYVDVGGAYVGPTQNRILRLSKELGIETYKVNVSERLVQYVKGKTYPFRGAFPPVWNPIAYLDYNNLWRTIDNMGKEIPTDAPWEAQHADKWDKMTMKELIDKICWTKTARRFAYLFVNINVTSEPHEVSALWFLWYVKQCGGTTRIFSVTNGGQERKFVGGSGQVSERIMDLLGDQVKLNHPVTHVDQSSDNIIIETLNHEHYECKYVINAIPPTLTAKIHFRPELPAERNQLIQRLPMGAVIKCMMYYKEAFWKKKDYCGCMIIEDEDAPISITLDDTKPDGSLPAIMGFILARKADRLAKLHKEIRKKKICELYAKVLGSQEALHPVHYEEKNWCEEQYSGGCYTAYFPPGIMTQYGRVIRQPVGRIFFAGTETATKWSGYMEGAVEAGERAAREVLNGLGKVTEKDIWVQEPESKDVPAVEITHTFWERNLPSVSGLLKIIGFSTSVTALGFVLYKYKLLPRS

[26] = Inhibition of IgE-mediated passive cutaneous anaphylaxis in rat when administered orally; type: functional; conditions: route po
[27] = Inhibition of IgE-mediated passive cutaneous anaphylaxis in rat when administered intravenously; type: functional; conditions: route iv
[28] = Cytotoxicity against African green monkey Vero cells; type: toxicity, cell-based; conditions: chlorocebus sabaeus
[29] = Ratio CC50 for cytotoxicity against African green monkey Vero cells over IC50 for antitrypanosomal activity against […]; type: toxicity, cell-based; conditions: read-out: Ratio CC50/IC50
[30] = tested on: Vero; experiment: Cytotoxicity against African green monkey Vero cells at 300 uM; type: toxicity, cell-based; conditions: chlorocebus sabaeus
[31] = Antioxidant activity assessed as DPPH radical scavenging activity at 1 uM; type: functional
[32] = Antioxidant activity assessed as DPPH radical scavenging activity at 5 uM; type: functional
[33] = Inhibition of ALR1 (unknown origin); set-up: species or system Homo sapiens
[34] = Antioxidant activity assessed as DPPH radical scavenging activity at 10 uM; type: functional
[35] = Inhibition of ALR2 (unknown origin); set-up: species or system Homo sapiens
[36] = Inhibition of lipid peroxidation at 100 uM by measuring MDA concentration; type: functional
[37] = Inhibition of lipid peroxidation at 50 uM by measuring MDA concentration; type: functional
[38] = target: Topoisomerase IV (Staphylococcus aureus, UniProt P0C1S7+P0C1U9); experiment: Inhibition of Staphylococcus aureus topoisomerase 4; type: protein-complex assay
Chain of Topoisomerase IV (P0C1U9 whole entry): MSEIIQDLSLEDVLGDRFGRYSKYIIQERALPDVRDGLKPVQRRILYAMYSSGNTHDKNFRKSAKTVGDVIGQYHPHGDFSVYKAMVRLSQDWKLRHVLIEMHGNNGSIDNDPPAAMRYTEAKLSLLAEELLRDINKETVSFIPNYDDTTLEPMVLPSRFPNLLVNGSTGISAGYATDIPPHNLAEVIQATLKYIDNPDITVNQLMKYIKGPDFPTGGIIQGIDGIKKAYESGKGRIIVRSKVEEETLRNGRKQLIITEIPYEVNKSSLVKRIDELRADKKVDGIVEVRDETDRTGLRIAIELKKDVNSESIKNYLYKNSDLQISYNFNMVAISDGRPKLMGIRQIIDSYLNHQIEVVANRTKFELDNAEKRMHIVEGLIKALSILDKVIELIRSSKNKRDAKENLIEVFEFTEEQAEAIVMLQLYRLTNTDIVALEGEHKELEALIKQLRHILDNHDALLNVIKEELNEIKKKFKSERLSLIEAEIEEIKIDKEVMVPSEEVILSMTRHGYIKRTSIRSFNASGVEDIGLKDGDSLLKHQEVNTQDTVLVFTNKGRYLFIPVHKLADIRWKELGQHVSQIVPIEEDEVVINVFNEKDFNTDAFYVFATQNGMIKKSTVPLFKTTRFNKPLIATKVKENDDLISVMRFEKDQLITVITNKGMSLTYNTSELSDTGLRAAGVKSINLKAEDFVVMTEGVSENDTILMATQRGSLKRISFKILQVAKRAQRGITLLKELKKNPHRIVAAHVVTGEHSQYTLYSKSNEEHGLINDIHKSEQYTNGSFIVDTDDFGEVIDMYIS
Chain of Topoisomerase IV (P0C1S7 whole entry): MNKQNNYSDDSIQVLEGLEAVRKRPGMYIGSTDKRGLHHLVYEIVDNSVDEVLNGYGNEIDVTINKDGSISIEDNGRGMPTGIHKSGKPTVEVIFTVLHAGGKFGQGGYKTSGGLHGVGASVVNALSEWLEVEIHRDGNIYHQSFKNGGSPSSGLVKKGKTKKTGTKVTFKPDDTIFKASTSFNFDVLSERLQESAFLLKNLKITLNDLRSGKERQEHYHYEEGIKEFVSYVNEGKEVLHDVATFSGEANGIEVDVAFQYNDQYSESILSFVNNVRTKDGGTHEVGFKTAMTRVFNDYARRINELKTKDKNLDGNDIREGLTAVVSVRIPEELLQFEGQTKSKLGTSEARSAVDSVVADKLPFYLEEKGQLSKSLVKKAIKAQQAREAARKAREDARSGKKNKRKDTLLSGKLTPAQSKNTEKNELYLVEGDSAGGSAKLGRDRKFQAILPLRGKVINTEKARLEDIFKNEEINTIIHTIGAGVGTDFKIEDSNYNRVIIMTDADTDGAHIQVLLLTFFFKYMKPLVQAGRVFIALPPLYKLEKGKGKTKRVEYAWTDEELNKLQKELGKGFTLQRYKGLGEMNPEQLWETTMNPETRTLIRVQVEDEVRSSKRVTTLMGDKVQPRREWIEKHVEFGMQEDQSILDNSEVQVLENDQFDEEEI

[39] = target: Voltage-gated inwardly rectifying potassium channel KCNH2 (Homo sapiens, UniProt Q12809); experiment: Inhibition of hERG; type: toxicity
Chain of Voltage-gated inwardly rectifying potassium channel KCNH2 (Q12809 whole entry): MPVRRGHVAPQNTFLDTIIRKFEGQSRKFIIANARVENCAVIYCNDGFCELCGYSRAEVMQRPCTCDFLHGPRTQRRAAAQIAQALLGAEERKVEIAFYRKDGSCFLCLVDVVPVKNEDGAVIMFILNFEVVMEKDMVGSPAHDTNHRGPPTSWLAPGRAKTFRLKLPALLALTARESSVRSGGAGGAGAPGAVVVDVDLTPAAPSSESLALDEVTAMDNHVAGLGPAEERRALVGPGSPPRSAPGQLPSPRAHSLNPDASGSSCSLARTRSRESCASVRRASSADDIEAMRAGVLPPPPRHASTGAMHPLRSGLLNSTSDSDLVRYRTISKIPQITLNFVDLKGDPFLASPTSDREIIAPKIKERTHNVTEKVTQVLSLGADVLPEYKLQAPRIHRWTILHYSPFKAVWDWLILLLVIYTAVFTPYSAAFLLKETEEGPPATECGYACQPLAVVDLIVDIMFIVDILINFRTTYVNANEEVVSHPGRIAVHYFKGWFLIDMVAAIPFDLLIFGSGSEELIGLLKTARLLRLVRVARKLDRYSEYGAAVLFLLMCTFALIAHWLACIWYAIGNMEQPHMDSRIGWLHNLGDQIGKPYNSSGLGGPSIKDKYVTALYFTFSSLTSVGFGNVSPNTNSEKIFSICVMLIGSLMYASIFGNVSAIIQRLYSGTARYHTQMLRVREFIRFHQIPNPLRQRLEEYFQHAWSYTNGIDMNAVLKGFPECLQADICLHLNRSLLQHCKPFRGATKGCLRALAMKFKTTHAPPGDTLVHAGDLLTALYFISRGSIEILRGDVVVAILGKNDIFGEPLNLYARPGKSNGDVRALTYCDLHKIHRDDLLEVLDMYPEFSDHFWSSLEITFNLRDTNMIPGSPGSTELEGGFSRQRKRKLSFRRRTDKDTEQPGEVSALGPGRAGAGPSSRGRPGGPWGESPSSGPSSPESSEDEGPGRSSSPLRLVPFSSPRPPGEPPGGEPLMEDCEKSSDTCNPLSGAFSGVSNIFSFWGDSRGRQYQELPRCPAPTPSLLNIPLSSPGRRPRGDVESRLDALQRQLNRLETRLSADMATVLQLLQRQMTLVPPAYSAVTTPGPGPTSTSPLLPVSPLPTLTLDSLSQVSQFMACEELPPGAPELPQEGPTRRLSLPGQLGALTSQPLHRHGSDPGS

[40] = tested on: Staphylococcus aureus; experiment: Antibacterial activity against methicillin-sensitive Staphylococcus aureus; type: functional
[41] = tested on: Staphylococcus aureus; experiment: Antibacterial activity against methicillin-resistant Staphylococcus aureus; type: functional

In the case of `CC(C)=NNc1nc2ccccc2[nH]c1=O`, the “diameter of the inhibition zone (DIZ)” value [1] is reported as 31 mm.

Work on `COc1cccc(OC)c1CN1C(=O)C2CCCN2c2ccccc21` (stereo unspecified) yielded an Activity [2] of 30%.

With `O=c1[nH]c2cc([N+](=O)[O-])ccc2nc1CBr` the MIC [3] was 31.2 µg/mL (≈ 110 µM), the MIC [4] was 15.6 µg/mL (≈ 54.9 µM) and the MIC [5] was 125 µg/mL (≈ 440 µM). For the same compound, the Activity [6] was 15%, the MIC [7] was 62.5 µg/mL (≈ 220 µM) and the MIC [8] was 15.6 µg/mL (≈ 54.9 µM). It also gave an MIC [9] of 15.6 µg/mL (≈ 54.9 µM), an MIC [10] of 31.2 µg/mL (≈ 110 µM) and an MIC [11] of 15.6 µg/mL (≈ 54.9 µM). It also gave an MIC [12] of 8 µg/mL (≈ 28.2 µM).

`Nc1ccc([N+](=O)[O-])cc1-c1nc2ccccc2n(Cc2ccccc2)c1=O` showed an Activity [13] of 50% and a metabolised [14] of 80%.

With `O=C1CN(S(=O)(=O)c2c(Cl)cccc2Cl)c2cc(Cl)ccc2N1` the EC50 [15] was 1.09 µM.

In the case of `Cc1ccc(NC(=O)Cn2c(=O)c(C)nc3ccccc32)c([N+](=O)[O-])c1`, the IC50 [16] is reported as 330 µM, the IC50 [17] is reported as 5.06 µM and the IC50 [18] is reported as 104 µM. The IC50 [19] was 199.7 µM and the IC50 [20] was 299 µM.

`NS(=O)(=O)c1ccc(CCCC2Nc3ccc(C(=O)N4CCN(c5ccncc5)CC4)cc3NC2=O)cc1` (stereo unspecified) showed an IC50 [21] of 0.31 µM.

`CC(C)n1c(=O)c2c(-c3ccc(F)cc3)ncn2c2cccc(Cl)c21` showed an EC50 [22] of 0.00204 µM and a Ki [23] of 0.0146 µM.

In the case of `C/C(=N\NC(=O)Cn1c(=O)c(Cc2ccccc2)nc2ccccc21)c1ccc(O)cc1`, the IC50 [24] is reported as 980 µM and the IC50 [25] is reported as 0.0016 µM.

Compound `CCCn1c(=O)c2cc(-c3nnn[nH]3)cn2c2ccccc21` has an ED50 [26] of 0.44 mg/kg and an ED50 [27] of 0.011 mg/kg.

In the case of `O=C1CN(CCCN2CCCCC2)c2ccc([N+](=O)[O-])cc2N1`, the CC50 [28] is reported as greater than 300 µM, the selectivity ratio [29] is reported as greater than 10 and the Activity [30] is reported as 3.26%.

`O=C(Cn1c(=O)c(/C=C/c2ccc(O)c(O)c2)nc2ccccc21)NS(=O)(=O)C(F)(F)F` gave an Activity [31] of 11%, an Activity [32] of 51.9% and an IC50 [33] of 9.16 µM. It also gave an Activity [34] of 82.1%, an IC50 [35] of 0.1 µM and an inhibition [36] of 73.5%. For the same compound, the inhibition [37] was 39%.

`COc1ccc2nccc(CC[C@H]3OC[C@H](NC(=O)c4ccc5c(c4)OCCO5)CO3)c2c1` showed an IC50 [38] greater than 200 µM, an IC50 [39] greater than 100 µM and an MIC [40] of 1 µg/mL (≈ 2.22 µM). For the same compound, the MIC [41] was 1 µg/mL (≈ 2.22 µM).
